From patent publication US20110236349A1, “Use of Epidermal Growth Factor Inhibitors in the Treatment of Viral Infection” (priority 2008, published 2011)

Columns and labels:
Rhinovirus 16 [1] = test: Rhinovirus 16 infection of NCI-H292 airway epithelial cells, quantified by viral plaque assay on HeLa cells; format: cell-based, Rhinovirus 16 (major group) in human NCI-H292 cells; conditions: AG 1478 10 μM; RV16 MOI 10; NCI-H292 cell lysates; n=2
Protocol: The effect of an EGF-R inhibitor on rhinovirus infectivity was assayed. First, human airway epithelial (NCI-H292 American Type Culture Collection Catalog No. CRL-1848) cells were treated with Rhinovirus 16 (major group Rhinovirus (RV) at multiplicity of infection (MOI) 10) or RV16 plus a selective EGFR tyrosine kinase inhibitor (AG 1478) at 10 μM. Cell lysates from these NCI-H292 cell cultures were collected at […]. To quantitate Rhinovirus infection in airway epithelial cells, cell lysates were analyzed by viral plaque assay, a technique that is commonly utilized to measure viral infection. Next, serial dilutions of NCI-H292 cell lysates were placed on HeLa cell cultures for a standard plaque assay. Cell cultures were covered with an agarose overlay. Cultures were incubated for three days. After three days, cell cultures were stained with crystal violet and the number of plaques was counted. […] FIG. 1A. […]
The effect of an antibody specific for EGF-R on Rhinovirus 16 (RV16) infection was also assessed. […]
FIGS. 1A and 1B. Viral quantification of Rhinovirus infection by plaque assay. […] Cell lysates were collected after 24 h and Rhinovirus infection was quantified by plaque assay [(A) n=2±SEM; (B) n=1].

Rhinovirus 16 [2] = test: Rhinovirus 16 infection of HeLa cells measured by flow cytometry; format: cell-based, Rhinovirus 16 (major group) in HeLa cells; conditions: RV16 MOI 10, 6 h, RV alone 62%, control 1%
Protocol: HeLa is an epithelial cell line that is routinely used to evaluate Rhinovirus infection. HeLa; American Type Culture Collections (ATCC) No. CCL-2. Here, HeLa cell cultures were treated with serum-free medium (Control), or with serum-free medium containing Rhinovirus 16 (major group RV at multiplicity of infection (MOI) 10) with and without a selective EGFR tyrosine kinase inhibitor (AG 1478). After 6 h, cell cultures were collected and stained with a monoclonal antibody that selectively binds to Rhinovirus. Cells were processed for flow cytometry and Rhinovirus infection in HeLa cells was measured. The data, shown in FIG. 2, are expressed as percent infected cells. Control (no RV): 1%; RV: 62%; RV+AG1478 (5 μM): 13%; and RV+AG1478 (10 μM): 9%. […] No effect with a platelet derived growth factor (PDGF) inhibitor (another tyrosine kinase inhibitor) was observed.

Influenza A/H1N1/PR8 = format: cell-based; conditions: 10 μM; 24 h; MOI~1; eight fields at 20×; n=4; Influenza alone 316±19 cells; p<0.0001
[3] = test system: respiratory syncytial virus (RSV); test: RSV infection of epithelial HeLa cell cultures, viral quantification by TCID50; format: cell-based
Protocol: To study the effect of a selective EGFR inhibitor on RSV infection, viral quantification by tissue culture-infective dose (TCID50)/100 μL in epithelial HeLa cell cultures treated with or without the selective EGFR tyrosine kinase inhibitor AG 1478 was used. […] FIG. 4A, RSV alone 10^2.5±1 TCID50 vs RSV plus AG 1478 (10 μM) 0 TCID50; n=2. FIG. 4B, RSV alone 10^4.38±0.1 TCID50 vs RSV plus AG 1478 (1 μM) 0 TCID50; n=2.
FIGS. 4A and 4B. Viral quantification by tissue culture-infective dose (TCID50)/100 μL in epithelial cell cultures treated with or without the selective EGFR inhibitor, AG 1478 [(A) AG1478 (10 μM) in TCID50/100 μL at 2 days ±SEM, (n=2 separate experiments); (B) AG 1478 (1 μM) in TCID50/100 μL at 4 days ±SEM, (n=2 separate experiments).
A similar set of experiments was conducted, to test the effect of Gefitinib (Iressa; ZD 1839; N-(3-chloro-4-fluoro-phenyl)-7-methoxy-6-(3-morpholin-4-ylpropoxy)quinazolin-4-amine) on RSV infection. Gefitinib (1 and 10 μM) suppressed RSV virus infection. The data are shown in FIG. 5 (RSV alone 10^1.5 TCID50 (first column), RSV plus Gefitinib (1 μM) 0 TCID50 (second column), and RSV plus Gefitinib (10 μM) 0 TCID50 (third column); n=1).
FIG. 5. Viral quantification by tissue culture-infective dose (TCID50)/100 μL at 2 days in epithelial cell cultures treated with or without the selective EGFR inhibitor, Gefitinib. RSV alone (first column), RSV plus Gefitinib (1 μM, second column), and RSV plus Gefitinib (10 μM, third column); n=1.

COc1cc2ncnc(Nc3cccc(Cl)c3)c2cc1OC [AG 1478, 4-(3-chlorophenylamino)-6,7-dimethoxyquinazoline]
Rhinovirus infection by plaque assay (Rhinovirus 16 [1]): suppress rhinovirus infection
percent infected cells (Rhinovirus 16 [2]; 5 μM): 13%
percent infected cells (Rhinovirus 16 [2]; 10 μM): 9%
cells staining positive for Influenza (Influenza A/H1N1/PR8): 94±49 cells
RSV tissue culture-infective dose (TCID50) ([3]; 1 μM, at 4 days, HeLa, RSV alone 10^4.38±0.1, n=2): 0 TCID50/100 μL
RSV tissue culture-infective dose (TCID50) ([3]; 10 μM, at 2 days, HeLa): 0 TCID50/100 μL

COc1cc2ncnc(Nc3ccc(F)c(Cl)c3)c2cc1OCCCN1CCOCC1 [Gefitinib, N-(3-chloro-4-fluoro-phenyl)-7-methoxy-6-(3-morpholin-4-ylpropoxy)quinazolin-4-amine]
RSV tissue culture-infective dose (TCID50) ([3]; 1 μM, at 2 days, RSV alone 10^1.5, n=1): 0 TCID50/100 μL
RSV tissue culture-infective dose (TCID50) ([3]; 10 μM, at 2 days, HeLa): 0 TCID50/100 μL
